Reference: patent US6911432B2, “Drugs, foods or drinks with the use of algae-derived physiologically active substances” (priority 1997, dated 2005)

How the values were obtained:
[1] = system: A549; test: antiproliferation assay, MTT method; assay type: cell-based, human; details: for dilution rate of the dilution added to the group whose absorbance at 590 nm was less than one-half of that of the control group: dilution rate 1 corresponds to 5 mM in medium; for IC50: read-out: IC50 (concentration required for 50% proliferation inhibitory rate)
Method: (§1) Each fraction was sterilized by filtration and its 10 μl portion was placed in a well of a 96 well microtiter plate. […] The cell morphology was observed under an optical microscope. […] The absorbance at 590 nm was measured to determine a cell proliferation rate. (2) A 50 mM solution of agarobiose, agarotetraose or agarohexaose obtained in Example 3-(1) was sterilized by filtration and diluted 2-, 4-, 8-, 16-, 32-, 64- and 128-folds with sterilized water. […] [table] The number in Table 3 represents the dilution rate of the dilution added to the group whose absorbance at 590 nm was less than one-half of that of the control group to which water was added. […] Then, for agarobiose, agarotetraose and agarohexaose, the concentrations required for 50% proliferation inhibitory rate (IC50) are calculated based on the change in the absorbance at 590 nm, and are shown in Table 4.

[2] = system: HCT116; test: antiproliferation assay, MTT method; assay type: cell-based, human; details: for dilution rate of the dilution added to the group whose absorbance at 590 nm was less than one-half of that of the control group: dilution rate 1 corresponds to 5 mM in medium; for IC50: read-out: IC50 (concentration required for 50% proliferation inhibitory rate)
Method: as §1

[3] = system: HT-29; test: antiproliferation assay, MTT method; assay type: cell-based, human; details: for dilution rate of the dilution added to the group whose absorbance at 590 nm was less than one-half of that of the control group: dilution rate 1 corresponds to 5 mM in medium; for IC50: read-out: IC50 (concentration required for 50% proliferation inhibitory rate)
Method: as §1

[4] = system: HeLa S3; test: antiproliferation assay, MTT method; assay type: cell-based, human; details: for dilution rate of the dilution added to the group whose absorbance at 590 nm was less than one-half of that of the control group: dilution rate 1 corresponds to 5 mM in medium; for IC50: read-out: IC50 (concentration required for 50% proliferation inhibitory rate)
Method: as §1

[5] = system: HepG2; test: antiproliferation assay, MTT method; assay type: cell-based, human; details: for dilution rate of the dilution added to the group whose absorbance at 590 nm was less than one-half of that of the control group: dilution rate 1 corresponds to 5 mM in medium; for IC50: read-out: IC50 (concentration required for 50% proliferation inhibitory rate)
Method: as §1

[6] = system: MCF7; test: antiproliferation assay, MTT method; assay type: cell-based, human; details: for dilution rate of the dilution added to the group whose absorbance at 590 nm was less than one-half of that of the control group: dilution rate 1 corresponds to 5 mM in medium; for IC50: read-out: IC50 (concentration required for 50% proliferation inhibitory rate)
Method: as §1

[7] = system: MKN45; test: antiproliferation assay, MTT method; assay type: cell-based, human; details: for dilution rate of the dilution added to the group whose absorbance at 590 nm was less than one-half of that of the control group: dilution rate 1 corresponds to 5 mM in medium; for IC50: read-out: IC50 (concentration required for 50% proliferation inhibitory rate)
Method: as §1

[8] = system: RPMI1788; test: antiproliferation assay, MTT method; assay type: cell-based, human; details: for dilution rate of the dilution added to the group whose absorbance at 590 nm was less than one-half of that of the control group: dilution rate 1 corresponds to 5 mM in medium; for IC50: read-out: IC50 (concentration required for 50% proliferation inhibitory rate)
Method: as §1

[9] = system: T-47D; test: antiproliferation assay, MTT method; assay type: cell-based, human; details: for dilution rate of the dilution added to the group whose absorbance at 590 nm was less than one-half of that of the control group: dilution rate 1 corresponds to 5 mM in medium; for IC50: read-out: IC50 (concentration required for 50% proliferation inhibitory rate)
Method: as §1

[10] = system: WiDr; test: antiproliferation assay, MTT method; assay type: cell-based, human; details: for dilution rate of the dilution added to the group whose absorbance at 590 nm was less than one-half of that of the control group: dilution rate 1 corresponds to 5 mM in medium; for IC50: read-out: IC50 (concentration required for 50% proliferation inhibitory rate)
Method: as §1

[11] = system: spleen lymphocytes; test: lymphocyte blastgenesis induced by Concanavalin A, 3H-thymidine uptake; assay type: cell-based, ddY mouse
Method: A spleen was taken out from a ddY mouse (Nippon SLC; male, 7 weeks old), finely minced and suspended in RPMI-1640 medium (Gibco) containing 10% fetal bovine serum (HyClone) to obtain a single cell suspension. The cell suspension was seeded into a plastic Petri dish, incubated at 37° C. for 2 hours in a carbon dioxide incubator. Adhesive cells adhered to the Petri dish were removed and non-adhesive cells were used as spleen lymphocytes. 200 μl of 2×10^6 cells/ml spleen lymphocytes suspension was seeded into each well of 96 well microtiter plate. Agarobiose at varying concentration was added to the wells other than the control well. Furthermore, to all the wells was added 5 μg of Con A (Nacalai Tesque) and the plate was incubated at 37° C. for one day in a carbon dioxide incubator. After incubation, 1 μCi of ^3H-thymidine was added to each well and incubation was continued for additional one day. Then, its uptake into cells was measured using a liquid scintillation counter.
FIG. 34 illustrates the relation between the agarobiose concentration and the ^3H-thymidine uptake in lymphocyte blastgenesis induced by Con A. The horizontal axis represents the agarobiose concentration and the vertical axis represents the ^3H-thymidine uptake (cpm). The open bar and the shaded bar represent the ^3H-thymidine uptake without stimulation and with stimulation by Con A, respectively. […]

[12] = system: spleen lymphocytes; test: mixed lymphocyte reaction, 3H-thymidine uptake; assay type: cell-based, BALB/c mouse and C57BL/6 mouse
Method: Spleens were taken out from a BALB/c mouse (Nippon SLC; male, 6 weeks old) and a C57BL/6 mouse (Nippon SLC; male, 6 weeks old) and spleen lymphocytes were obtained by the above-described method. Each cell suspension was adjusted to a concentration of 2×10^6 cell/ml, 100 μl portions from respective suspensions were mixed together and seeded in a 96 well microtiter plate. Agarobiose at varying concentration was added to the wells other than the control well, and the plate was incubated at 37° C. for 4 days in a carbon dioxide incubator. After incubation, 1 μCi of ^3H-thymidine was added to each well, and the plate was incubated for additional 1 day. Its uptake into cells was measured using a liquid scintillation counter.
That is, FIG. 35 illustrates the relation between the agarobiose concentration and the ^3H-thymidine uptake in the mixed lymphocyte reaction. The horizontal axis represents the agarobiose concentration and the vertical axis represents ^3H-thymidine uptake (cpm). The open bar and the shaded bar represent ^3H-thymidine uptake in case where cells from either one of the lines were used independently, and in case where mixed cells from both of the lines were used, respectively. […] Thus, the inhibitory activity against lymphocyte activation of agarobiose has been recognized.

IC50 [1] [µM] | IC50 [2] [µM] | IC50 [3] [µM] | IC50 [4] [µM] | IC50 [5] [µM] | IC50 [6] [µM] | IC50 [7] [µM] | IC50 [9] [µM] | Compound | dilution rate of the dilution added to the group whose absorbance at 590 nm was less than one-half of that of the control group [1] | dilution rate of the dilution added to the group whose absorbance at 590 nm was less than one-half of that of the control group [2] | dilution rate of the dilution added to the group whose absorbance at 590 nm was less than one-half of that of the control group [3] | dilution rate of the dilution added to the group whose absorbance at 590 nm was less than one-half of that of the control group [4] | dilution rate of the dilution added to the group whose absorbance at 590 nm was less than one-half of that of the control group [5] | dilution rate of the dilution added to the group whose absorbance at 590 nm was less than one-half of that of the control group [6] | dilution rate of the dilution added to the group whose absorbance at 590 nm was less than one-half of that of the control group [7] | dilution rate of the dilution added to the group whose absorbance at 590 nm was less than one-half of that of the control group [8] | IC50 [8] [µM] | dilution rate of the dilution added to the group whose absorbance at 590 nm was less than one-half of that of the control group [9] | dilution rate of the dilution added to the group whose absorbance at 590 nm was less than one-half of that of the control group [10] | IC50 [10] [µM] | further results
570 | 244 | 622 | 353 | 652 | 274 | 344 | 210 | OC[C@H]1O[C@@H](O[C@H]2[C@H]3OC[C@@H]2OC(O)[C@H]3O)[C@H](O)[C@@H](O)[C@H]1O (mixture of isomers) [Agarobiose, agarobiose] | 8 | 16 | 8 | 8 | 8 | 16 | 8 | 64 | 44 | 16 | 8 | 405 | inhibitory activity against lymphocyte blastgenesis induced by Con A (in words) [11]: dose-dependent inhibitory activity; inhibition of mouse lymphocyte proliferation stimulated by mitogen ([11]; Con A, 100 μg/ml): almost completely inhibits; inhibitory activity against mixed lymphocyte reaction (in words) [12]: dose-dependent inhibitory activity; inhibition of lymphocytes activation by stimulation with an alloantigen ([12]; 10 μg/ml): almost completely inhibits
494 | 158 | 208 | 400 | 413 | 276 | 196 | 183 | OC[C@H]1O[C@@H](O[C@H]2[C@H]3OC[C@@H]2O[C@@H](O[C@H]2[C@@H](O)[C@@H](CO)O[C@@H](O[C@H]4[C@H]5OC[C@@H]4OC(O)[C@H]5O)[C@@H]2O)[C@H]3O)[C@H](O)[C@@H](O)[C@H]1O (some centres unmarked) [Agarotetraose, agarotetraose] | 8 | 32 | 16 | 8 | 8 | 16 | 16 | 128 | 28 | 16 | 8 | 399 | –
